ChEMBL document CHEMBL1150976, “The selectivity of protein kinase inhibitors: a further update” (Biochem J, 2007)
Values belong to the compound of their own block, whether it stands above or below them.

Experiments:
[1] = target: Protein kinase C alpha type (Homo sapiens) (UniProt P17252); test: Percentage PKCalpha activity remaining in the presence of 25uM inhibitor
[2] = target: Serine/threonine-protein kinase PAK 4 (Homo sapiens, UniProt O96013); test: Inhibition of PAK4 in the presence of 5uM ATP
[3] = target: Mitogen-activated protein kinase 8 (Homo sapiens, UniProt P45983); test: Percentage JNK1 activity remaining in the presence of 2uM inhibitor
[4] = target: T1, Serine/threonine-protein kinase Sgk1 (Homo sapiens) (UniProt O00141); test: Percentage SGK1 activity remaining in the presence of 2uM inhibitor
T1 sequence (whole entry): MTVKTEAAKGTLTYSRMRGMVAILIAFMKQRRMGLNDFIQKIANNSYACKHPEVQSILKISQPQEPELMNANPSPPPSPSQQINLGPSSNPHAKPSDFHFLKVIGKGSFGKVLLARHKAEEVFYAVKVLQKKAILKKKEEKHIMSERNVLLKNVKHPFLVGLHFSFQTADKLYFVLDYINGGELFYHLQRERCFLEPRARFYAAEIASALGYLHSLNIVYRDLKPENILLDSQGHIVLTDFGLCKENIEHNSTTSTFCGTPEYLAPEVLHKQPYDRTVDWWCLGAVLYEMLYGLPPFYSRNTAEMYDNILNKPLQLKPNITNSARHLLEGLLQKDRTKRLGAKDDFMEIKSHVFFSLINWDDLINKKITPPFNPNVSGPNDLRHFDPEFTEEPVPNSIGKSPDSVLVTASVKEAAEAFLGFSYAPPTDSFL

[5] = target: SRSF protein kinase 1 (Homo sapiens) (UniProt Q96SB4); test: Percentage SRPK1 activity remaining in the presence of 2uM inhibitor; details: filed as antagonist
[6] = target: Ribosomal protein S6 kinase beta-1 (Homo sapiens, UniProt P23443); test: Percentage S6K1 activity remaining in the presence of 2uM inhibitor
[7] = target: T2, MAP kinase-activated protein kinase 5 (Homo sapiens) (UniProt Q8IW41); test: Percentage PRAK activity remaining in the presence of 2uM inhibitor
T2 sequence (whole entry): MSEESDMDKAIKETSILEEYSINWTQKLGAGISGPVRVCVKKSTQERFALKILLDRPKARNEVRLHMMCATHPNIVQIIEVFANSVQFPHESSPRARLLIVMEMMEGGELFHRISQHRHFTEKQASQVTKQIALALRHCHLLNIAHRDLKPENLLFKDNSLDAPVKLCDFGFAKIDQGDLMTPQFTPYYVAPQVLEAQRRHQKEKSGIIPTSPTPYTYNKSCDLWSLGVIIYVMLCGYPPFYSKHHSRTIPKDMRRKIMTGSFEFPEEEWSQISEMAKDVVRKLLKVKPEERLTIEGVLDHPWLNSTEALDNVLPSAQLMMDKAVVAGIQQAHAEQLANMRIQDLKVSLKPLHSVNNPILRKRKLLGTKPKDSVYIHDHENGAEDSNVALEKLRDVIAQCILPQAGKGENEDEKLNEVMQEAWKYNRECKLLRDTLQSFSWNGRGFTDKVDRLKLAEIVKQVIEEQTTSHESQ

[8] = target: T3, Protein kinase C zeta type (Homo sapiens) (UniProt Q05513); test: Percentage PKCzeta activity remaining in the presence of 2uM inhibitor
T3 sequence (whole entry): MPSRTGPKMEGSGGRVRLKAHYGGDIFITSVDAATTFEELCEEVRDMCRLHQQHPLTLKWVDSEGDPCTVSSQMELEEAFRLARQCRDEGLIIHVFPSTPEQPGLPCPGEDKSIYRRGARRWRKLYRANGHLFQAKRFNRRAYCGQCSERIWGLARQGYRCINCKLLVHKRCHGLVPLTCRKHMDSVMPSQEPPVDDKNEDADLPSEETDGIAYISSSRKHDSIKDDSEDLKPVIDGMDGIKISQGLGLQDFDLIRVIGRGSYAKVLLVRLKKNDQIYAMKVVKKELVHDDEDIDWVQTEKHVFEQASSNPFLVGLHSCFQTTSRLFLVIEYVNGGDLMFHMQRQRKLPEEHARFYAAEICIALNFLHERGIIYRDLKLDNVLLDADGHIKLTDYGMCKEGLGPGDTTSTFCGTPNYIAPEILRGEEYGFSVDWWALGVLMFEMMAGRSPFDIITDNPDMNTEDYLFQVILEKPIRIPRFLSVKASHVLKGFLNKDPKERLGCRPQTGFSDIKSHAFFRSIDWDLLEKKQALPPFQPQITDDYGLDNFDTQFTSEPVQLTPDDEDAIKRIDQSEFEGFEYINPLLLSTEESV

[9] = target: Mitogen-activated protein kinase 14 (Homo sapiens, UniProt Q16539); test: Percentage p38alpha activity remaining in the presence of 2uM inhibitor
Homo sapiens = species on record: Homo sapiens; test: Percentage PHK activity remaining in the presence of 3uM inhibitor
[10] = target: cAMP-dependent protein kinase catalytic subunit alpha (Homo sapiens, UniProt P17612); test: Percentage PKA activity remaining in the presence of 3uM inhibitor
[11] = target: SRSF protein kinase 1 (Homo sapiens) (UniProt Q96SB4); test: Percentage SRPK1 activity remaining in the presence of 3uM inhibitor
[12] = target: T2, MAP kinase-activated protein kinase 5 (Homo sapiens); test: Percentage PRAK activity remaining in the presence of 3uM inhibitor
[13] = target: T4, Eukaryotic elongation factor 2 kinase (Homo sapiens) (UniProt O00418); test: Percentage EF2K activity remaining in the presence of 3uM inhibitor
T4 sequence (whole entry): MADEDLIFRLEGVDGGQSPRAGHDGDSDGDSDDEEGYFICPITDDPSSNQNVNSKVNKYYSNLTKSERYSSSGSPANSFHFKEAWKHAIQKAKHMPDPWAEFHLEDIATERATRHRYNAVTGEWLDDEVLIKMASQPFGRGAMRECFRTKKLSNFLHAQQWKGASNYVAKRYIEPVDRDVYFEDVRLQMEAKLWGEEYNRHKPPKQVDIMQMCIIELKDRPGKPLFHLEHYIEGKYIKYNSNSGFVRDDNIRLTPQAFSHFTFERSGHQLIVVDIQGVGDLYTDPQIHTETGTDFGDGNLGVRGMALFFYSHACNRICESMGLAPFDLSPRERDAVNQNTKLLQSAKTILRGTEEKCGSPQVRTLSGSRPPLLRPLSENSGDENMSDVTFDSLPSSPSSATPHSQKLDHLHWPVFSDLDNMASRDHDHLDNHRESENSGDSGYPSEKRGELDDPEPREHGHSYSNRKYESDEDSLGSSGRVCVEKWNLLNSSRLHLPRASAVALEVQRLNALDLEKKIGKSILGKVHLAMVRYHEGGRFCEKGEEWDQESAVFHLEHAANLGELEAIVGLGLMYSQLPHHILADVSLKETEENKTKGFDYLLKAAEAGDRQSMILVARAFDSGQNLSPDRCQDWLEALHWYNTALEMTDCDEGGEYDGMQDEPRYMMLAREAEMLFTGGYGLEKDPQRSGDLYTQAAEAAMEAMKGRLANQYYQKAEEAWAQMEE

[14] = target: Mitogen-activated protein kinase 10 (Homo sapiens) (UniProt P53779); test: Percentage JNK3 activity remaining in the presence of 3uM inhibitor
[15] = target: MAP kinase-activated protein kinase 2 (Homo sapiens) (UniProt P49137); test: Percentage MAPKAPK2 activity remaining in the presence of 3uM inhibitor
Sequence of MAP kinase-activated protein kinase 2 (Homo sapiens) (P49137 whole entry, looked up): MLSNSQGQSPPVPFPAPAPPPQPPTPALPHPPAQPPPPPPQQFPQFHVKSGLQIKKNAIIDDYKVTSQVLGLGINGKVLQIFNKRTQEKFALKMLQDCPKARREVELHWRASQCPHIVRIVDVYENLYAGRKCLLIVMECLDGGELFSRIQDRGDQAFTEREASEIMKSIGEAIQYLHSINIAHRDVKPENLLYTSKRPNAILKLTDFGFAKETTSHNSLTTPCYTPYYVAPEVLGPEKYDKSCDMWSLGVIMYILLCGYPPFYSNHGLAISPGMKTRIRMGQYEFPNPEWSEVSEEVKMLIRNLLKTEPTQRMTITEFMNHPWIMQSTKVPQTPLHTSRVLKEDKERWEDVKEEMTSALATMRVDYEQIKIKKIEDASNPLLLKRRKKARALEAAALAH

Sequence of SRSF protein kinase 1 (Homo sapiens) (Q96SB4 whole entry): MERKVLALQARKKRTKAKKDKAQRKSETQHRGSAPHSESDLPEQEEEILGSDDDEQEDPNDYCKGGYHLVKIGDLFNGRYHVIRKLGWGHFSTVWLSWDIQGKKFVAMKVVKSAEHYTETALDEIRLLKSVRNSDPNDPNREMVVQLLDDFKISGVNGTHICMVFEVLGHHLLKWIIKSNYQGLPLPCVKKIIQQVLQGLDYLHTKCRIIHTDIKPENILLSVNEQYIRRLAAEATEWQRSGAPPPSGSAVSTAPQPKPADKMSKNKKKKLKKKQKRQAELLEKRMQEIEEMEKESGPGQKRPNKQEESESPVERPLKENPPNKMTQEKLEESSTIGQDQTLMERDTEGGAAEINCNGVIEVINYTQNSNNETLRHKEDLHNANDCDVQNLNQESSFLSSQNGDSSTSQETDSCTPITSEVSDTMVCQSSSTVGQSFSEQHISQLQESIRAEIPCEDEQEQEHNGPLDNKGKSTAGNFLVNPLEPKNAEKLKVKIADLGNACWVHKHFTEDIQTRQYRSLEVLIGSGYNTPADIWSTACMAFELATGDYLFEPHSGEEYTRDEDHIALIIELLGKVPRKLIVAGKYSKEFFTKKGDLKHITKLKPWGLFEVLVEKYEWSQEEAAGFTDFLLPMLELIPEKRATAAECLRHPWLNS
Sequence of Ribosomal protein S6 kinase beta-1 (P23443 whole entry, looked up): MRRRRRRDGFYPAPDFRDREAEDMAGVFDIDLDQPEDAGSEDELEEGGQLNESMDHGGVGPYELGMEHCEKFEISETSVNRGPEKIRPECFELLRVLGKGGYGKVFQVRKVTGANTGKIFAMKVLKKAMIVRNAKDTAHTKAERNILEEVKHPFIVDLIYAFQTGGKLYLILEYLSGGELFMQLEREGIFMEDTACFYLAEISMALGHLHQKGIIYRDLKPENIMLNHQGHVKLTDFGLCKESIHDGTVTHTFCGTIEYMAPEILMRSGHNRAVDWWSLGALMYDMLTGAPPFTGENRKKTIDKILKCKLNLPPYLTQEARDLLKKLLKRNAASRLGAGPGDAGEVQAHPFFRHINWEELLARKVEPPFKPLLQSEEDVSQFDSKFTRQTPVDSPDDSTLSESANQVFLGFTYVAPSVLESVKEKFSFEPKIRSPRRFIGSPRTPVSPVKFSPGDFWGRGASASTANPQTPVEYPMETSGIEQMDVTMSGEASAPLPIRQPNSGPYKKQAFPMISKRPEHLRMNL
Sequence of Mitogen-activated protein kinase 14 (Q16539 whole entry): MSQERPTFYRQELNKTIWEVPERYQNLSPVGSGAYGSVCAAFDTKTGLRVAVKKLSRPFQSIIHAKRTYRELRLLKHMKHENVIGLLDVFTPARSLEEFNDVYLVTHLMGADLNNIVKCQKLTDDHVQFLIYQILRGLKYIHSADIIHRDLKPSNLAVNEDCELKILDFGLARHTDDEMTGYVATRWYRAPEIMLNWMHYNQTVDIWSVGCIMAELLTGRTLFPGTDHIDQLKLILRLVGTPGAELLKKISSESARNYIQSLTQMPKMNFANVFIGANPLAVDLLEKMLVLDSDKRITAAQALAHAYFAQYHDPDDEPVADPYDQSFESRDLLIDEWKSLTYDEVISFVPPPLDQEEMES
Sequence of Serine/threonine-protein kinase PAK 4 (O96013 whole entry): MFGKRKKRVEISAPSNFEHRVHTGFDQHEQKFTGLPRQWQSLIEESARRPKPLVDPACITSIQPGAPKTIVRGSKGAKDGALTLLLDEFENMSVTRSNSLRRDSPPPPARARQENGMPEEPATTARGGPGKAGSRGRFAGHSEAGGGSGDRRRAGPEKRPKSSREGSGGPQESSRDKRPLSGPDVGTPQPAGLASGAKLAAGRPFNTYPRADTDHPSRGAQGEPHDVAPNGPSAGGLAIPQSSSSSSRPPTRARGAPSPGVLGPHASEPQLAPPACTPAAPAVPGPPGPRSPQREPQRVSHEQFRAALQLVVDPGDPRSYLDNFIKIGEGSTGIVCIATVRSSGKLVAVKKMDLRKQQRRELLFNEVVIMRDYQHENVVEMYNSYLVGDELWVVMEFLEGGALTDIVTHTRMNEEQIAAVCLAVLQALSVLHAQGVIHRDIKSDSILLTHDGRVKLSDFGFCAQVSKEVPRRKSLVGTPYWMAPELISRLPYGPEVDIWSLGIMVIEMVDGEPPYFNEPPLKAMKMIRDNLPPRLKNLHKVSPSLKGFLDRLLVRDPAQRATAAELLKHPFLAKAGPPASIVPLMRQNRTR
Sequence of Mitogen-activated protein kinase 10 (Homo sapiens) (P53779 whole entry): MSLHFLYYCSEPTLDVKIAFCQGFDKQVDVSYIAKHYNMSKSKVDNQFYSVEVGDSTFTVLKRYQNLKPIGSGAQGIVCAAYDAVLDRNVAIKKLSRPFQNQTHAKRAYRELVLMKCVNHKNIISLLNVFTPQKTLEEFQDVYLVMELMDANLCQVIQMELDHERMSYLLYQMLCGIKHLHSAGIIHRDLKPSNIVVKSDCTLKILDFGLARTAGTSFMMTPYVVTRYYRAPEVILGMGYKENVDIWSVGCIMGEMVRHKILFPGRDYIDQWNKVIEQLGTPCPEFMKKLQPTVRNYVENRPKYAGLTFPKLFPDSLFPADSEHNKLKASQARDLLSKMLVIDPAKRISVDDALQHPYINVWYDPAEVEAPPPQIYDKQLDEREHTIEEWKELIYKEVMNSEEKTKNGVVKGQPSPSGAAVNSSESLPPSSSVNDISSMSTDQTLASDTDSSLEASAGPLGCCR
Sequence of Mitogen-activated protein kinase 8 (P45983 whole entry): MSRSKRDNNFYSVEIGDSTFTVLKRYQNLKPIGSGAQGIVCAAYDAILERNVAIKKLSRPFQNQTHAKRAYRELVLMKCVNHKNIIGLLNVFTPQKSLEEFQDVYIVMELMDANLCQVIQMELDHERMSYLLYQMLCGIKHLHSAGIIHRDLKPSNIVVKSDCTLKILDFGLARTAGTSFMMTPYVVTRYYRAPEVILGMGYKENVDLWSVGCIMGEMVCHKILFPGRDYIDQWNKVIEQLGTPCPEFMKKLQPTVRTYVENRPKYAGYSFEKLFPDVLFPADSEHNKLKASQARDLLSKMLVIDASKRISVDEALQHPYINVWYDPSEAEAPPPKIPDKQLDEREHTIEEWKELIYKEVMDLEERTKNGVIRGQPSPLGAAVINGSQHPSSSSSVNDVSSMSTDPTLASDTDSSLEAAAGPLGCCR

- Activity [1]: 86%
SMILES: NCCNS(=O)(=O)c1ccc(Cl)c2ccncc12

SMILES: CC(C)[C@H](CO)Nc1nc(Nc2cccc(Cl)c2)c2ncn(C(C)C)c2n1 [PURVALANOLA]
- IC50 [2]: 0.13 µM (antagonist)

- Activity [3]: 106%
- Activity [4]: 100%
- Activity [5]: 16%
- Activity [6]: 86%
- Activity [7]: 90%
- Activity [8]: 81%
- Activity [9]: 77%
SMILES: Cn1cc(C2=C(c3ccc(Cl)cc3Cl)C(=O)NC2=O)c2ccccc21

- Activity (Homo sapiens): 93%
- Activity [10]: 85%
- Activity [11]: 85%
- Activity [12]: 97%
- Activity [13]: 97%
- Activity [14]: 89%
- Activity [15]: 94%
SMILES: Cc1ccc(-c2c(C(=O)CF)n(CCCO)c3ncnc(N)c23)cc1
